According to publication PMC8151276, “An Integrated Approach toward NanoBRET Tracers for Analysis of GPCR Ligand Engagement” (Molecules, 2021):

Legend:
Assay type in all cases: binding
F2RL2 = target: T1, F2RL2 (Homo sapiens, UniProt O00254); test: NanoBRET screen HiBiT-F2RL2 in HEK293; conditions: F2RL2
T1 construct: purchased Promega (in-house HiBiT-GPCR construct library, NanoBRET)
T1 sequence (O00254 22-374): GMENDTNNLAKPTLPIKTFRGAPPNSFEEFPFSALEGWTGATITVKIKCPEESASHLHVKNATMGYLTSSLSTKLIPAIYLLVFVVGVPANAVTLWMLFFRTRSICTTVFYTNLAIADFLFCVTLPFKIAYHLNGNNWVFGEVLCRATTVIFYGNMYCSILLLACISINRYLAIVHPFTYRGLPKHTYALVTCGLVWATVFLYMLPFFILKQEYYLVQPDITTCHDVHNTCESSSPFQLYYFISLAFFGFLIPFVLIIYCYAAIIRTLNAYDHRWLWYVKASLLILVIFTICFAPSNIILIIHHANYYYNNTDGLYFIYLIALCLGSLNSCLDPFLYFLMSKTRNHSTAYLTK
Description: (§1) Each tracer candidate was screened across the entire library of HiBiT-GPCR constructs using NanoBRET as the detection modality. As depicted in Figure 4A, the specificity of interactions was evaluated through decrease in BRET due to competitive displacement of a bound tracer by excess parental compound. Each tracer was analyzed for binding to each HiBiT-GPCR fusion in the absence and in the presence of competing parental compound. Briefly, HEK293 cells were transfected with HiBiT-GPCR constructs diluted into promoterless DNA to reduce expression and maximize translocation to the cell surface. Each tracer candidate was then screened at concentrations of 1 μM and 0.1 μM across cells expressing these fusions. Cells were treated for 1.5 h with tracer either alone or in the presence of 20 μM competing parental compound (i.e., control). BRET was measured upon addition of purified LgBiT and subsequent complementation with HiBiT genetically fused to a GPCR. The specificity of interactions was assessed through a decrease in BRET signal due to competitive displacement of the bound tracer. To further gauge the robustness of these interactions, the fold response over the control (i.e., BRETtracer/BRETcontrol) was calculated. We chose a 1.5-fold response, which translates to ≥7-fold signal over noise as the minimal threshold required to score an interaction as positive. […]. Below we highlight the screening results obtained for our exemplary fluorescent tracers based on Clozapine, Amitriptyline and AZD1283.
(§2) HiBiT-GPCR DNA constructs were diluted in 10 mM Tris pH 8 to a final concentration of 0.01 μg/μL, arrayed in 96-well plates and stored at −20 °C. For transfection, HEK293 cells were suspended in Opti-MEM (without phenol red) supplemented with 2% fetal bovine serum (Seradigm) and 100 units/mL penicillin–streptomycin (Gibco) at a final concentration of 220,000 cells/mL and dispensed into white 96-well plates at 90 μL/well. Subsequent transfections and screens were carried using an Agilent Bravo Automated Liquid Handling Platform. First, the 96-well HiBiT DNA arrays were diluted 25-fold in Opti-MEM (without serum or phenol red) to a final concentration of 0.0004 μg/μL and 20 μL of the diluted DNAs were transferred into new 96-well plates. Next, promoterless carrier DNA (1 μg/μL) was diluted 25-fold (0.04 μg/μL) and then dispensed into the diluted arrays at 20 μL/well. Following brief mixing, Viafect transfection reagent (Promega) diluted 16-fold into Opti-MEM was dispensed into the plates at 40 μL/well. After mixing by pipetting, plates were incubated for 10 min on the pipetting station deck. The DNA-transfection reagent complexes were then added to plates containing cells. To facilitate the screen, 10 μL of DNA-transfection reagent complexes were added in duplicates to the top 4 and bottom 4 rows, resulting in two identical 48-well arrays per plate. Plates with transfected cells were incubated for 18–20 h at 37 °C/5% CO2. A screen of each tracer across the entire library using two different concentrations requires duplicate plates of transfected cells. Depending on the number of tracers being screened, transfections can be scaled up using the same ratios. The next day, for each tracer, four 20× screening solutions in tracer dilution buffer (Promega) were prepared: two duplicates at final concentration of 20 μM and two duplicates at a final concentration of 2 μM. A competing unmodified compound was added to one of each duplicate at a final concentration of 400 μM. The four resulting solutions were diluted 4-fold in Opti-MEM without serum or phenol red to generate 5× solutions (5 µM and 0.5 µM tracer +/− 100 μM competing compound). To screen the library, a BioTek MultiFlo FX liquid dispenser was used to dispense 22.5 µL of tracer solution to the top 4 rows and 22.5 µL tracer + competing compound solution to the 4 bottom rows. Plates were briefly mixed on an orbital shaker and incubated for 1.5 h at room temperature. […]

OXTR = target: T2, OXTR (Homo sapiens, UniProt P30559); test: NanoBRET screen HiBiT-OXTR in HEK293; conditions: OXTR
T2 construct: purchased Promega (in-house HiBiT-GPCR construct library, NanoBRET)
T2 sequence (P30559 1-389): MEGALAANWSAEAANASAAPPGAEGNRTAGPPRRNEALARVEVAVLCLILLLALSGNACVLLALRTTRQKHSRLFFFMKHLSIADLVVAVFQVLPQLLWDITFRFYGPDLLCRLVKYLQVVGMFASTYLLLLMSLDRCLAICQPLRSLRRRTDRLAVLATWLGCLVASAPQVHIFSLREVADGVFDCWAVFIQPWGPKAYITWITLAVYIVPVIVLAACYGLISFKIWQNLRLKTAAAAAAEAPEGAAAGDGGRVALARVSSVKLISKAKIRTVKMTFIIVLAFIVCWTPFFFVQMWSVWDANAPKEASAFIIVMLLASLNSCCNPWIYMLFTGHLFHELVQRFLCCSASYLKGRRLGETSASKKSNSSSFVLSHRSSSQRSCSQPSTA
Description: as §1, §2

EDNRA = target: T3, EDNRA (Homo sapiens, UniProt P25101); test: NanoBRET screen HiBiT-EDNRA in HEK293; conditions: EDNRA
T3 construct: purchased Promega (in-house HiBiT-GPCR construct library, NanoBRET)
T3 sequence (P25101 21-427): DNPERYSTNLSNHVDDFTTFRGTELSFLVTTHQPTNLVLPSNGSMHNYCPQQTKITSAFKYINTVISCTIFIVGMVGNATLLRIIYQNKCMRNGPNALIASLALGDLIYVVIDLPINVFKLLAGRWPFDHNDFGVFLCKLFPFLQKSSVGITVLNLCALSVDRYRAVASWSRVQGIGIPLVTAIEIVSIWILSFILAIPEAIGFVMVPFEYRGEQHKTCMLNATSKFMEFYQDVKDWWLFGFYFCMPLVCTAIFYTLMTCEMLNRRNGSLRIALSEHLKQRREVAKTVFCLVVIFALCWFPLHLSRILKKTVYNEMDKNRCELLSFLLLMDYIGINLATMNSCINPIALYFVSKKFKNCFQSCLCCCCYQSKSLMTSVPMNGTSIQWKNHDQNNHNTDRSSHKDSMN
Description: as §1, §2

NPFFR2 = target: T4, NPFFR2 (Homo sapiens, UniProt Q9Y5X5); test: NanoBRET screen HiBiT-NPFFR2 in HEK293; conditions: NPFFR2
T4 construct: purchased Promega (in-house HiBiT-GPCR construct library, NanoBRET)
T4 sequence (Q9Y5X5 whole entry): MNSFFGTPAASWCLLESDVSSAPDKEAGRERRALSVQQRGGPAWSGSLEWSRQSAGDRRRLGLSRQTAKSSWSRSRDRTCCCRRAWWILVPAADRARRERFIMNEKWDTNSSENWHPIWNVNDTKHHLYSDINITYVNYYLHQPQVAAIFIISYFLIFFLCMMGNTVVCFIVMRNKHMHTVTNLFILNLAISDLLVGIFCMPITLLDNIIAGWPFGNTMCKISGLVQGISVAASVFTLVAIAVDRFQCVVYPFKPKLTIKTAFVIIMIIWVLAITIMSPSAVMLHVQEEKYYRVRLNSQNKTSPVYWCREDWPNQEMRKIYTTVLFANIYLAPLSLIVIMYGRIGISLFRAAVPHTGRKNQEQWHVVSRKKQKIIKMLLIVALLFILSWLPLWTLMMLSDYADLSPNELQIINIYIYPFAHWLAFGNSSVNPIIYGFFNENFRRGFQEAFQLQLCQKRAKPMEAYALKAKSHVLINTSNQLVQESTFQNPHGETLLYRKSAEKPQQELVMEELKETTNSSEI
Description: as §1, §2

| Structure (SMILES) | NanoBRET Fold Response (F2RL2; tracer 0.1μM) | NanoBRET Fold Response (F2RL2; tracer 1μM) | NanoBRET Fold Response (OXTR; tracer 0.1μM) | NanoBRET Fold Response (EDNRA; tracer 0.1μM) | NanoBRET Fold Response (EDNRA; tracer 1μM) | NanoBRET Fold Response (NPFFR2; tracer 0.1μM) | NanoBRET Fold Response (OXTR; tracer 1μM) | NanoBRET Fold Response (NPFFR2; tracer 1μM) | NanoBRET Fold Response (F2RL2; 0.1μM) | NanoBRET Fold Response (F2RL2; 1μM) | NanoBRET Fold Response (OXTR; 0.1μM) | NanoBRET Fold Response (OXTR; 1μM) | NanoBRET Fold Response (EDNRA; 0.1μM) | NanoBRET Fold Response (EDNRA; 1μM) | NanoBRET Fold Response (NPFFR2; 0.1μM) | NanoBRET Fold Response (NPFFR2; 1μM) |
| --- | --- | --- | --- | --- | --- | --- | --- | --- | --- | --- | --- | --- | --- | --- | --- | --- |
| COc1ccccc1N1CCN(CCCCN2C(=O)c3ccc(CNC(=O)CCOCCOCCOCCOCCNC(=O)CCc4ccc5n4[B-](F)(F)[N+]4=C(c6ccc[nH]6)C=CC4=C5)cc3C2=O)CC1 [NAN-190-2-NB590] | 1.02 | 1.01 | 0.96 | 1.02 | 1.05 | 0.97 | – | – | – | – | – | – | – | – | – | – |
| COc1ccccc1N1CCN(CCCCN2C(=O)c3ccc(CNC(=O)CCOCCNC(=O)c4ccc(CNC(=O)CCc5ccc6n5[B-](F)(F)[N+]5=C(c7ccc[nH]7)C=CC5=C6)cc4)cc3C2=O)CC1 [NAN-190-3-NB590] | 1.10 | 0.95 | 1.10 | 1.01 | 1.21 | 1.02 | 1.05 | 1.01 | – | – | – | – | – | – | – | – |
| O=C(CCc1ccc2n1[B-](F)(F)[N+]1=C(c3ccc[nH]3)C=CC1=C2)NCc1ccc(C(=O)NCCOCCC(=O)N[C@@H]2CC[C@@]3(O)[C@H]4Cc5ccc(O)c6c5[C@@]3(CCN4CC3CC3)[C@H]2O6)cc1 [Naltrexone-3-NB590] | 1.07 | 1.02 | 0.99 | 1.00 | 0.98 | 1.01 | 0.91 | 0.95 | – | – | – | – | – | – | – | – |
| Cc1cc2c(s1)Nc1ccccc1N=C2N1CCN(CCCNC(=O)CCOCCOCCOCCOCCNC(=O)CCc2ccc3n2[B-](F)(F)[N+]2=C(c4ccc[nH]4)C=CC2=C3)CC1 [Olanzapine-a-2-NB590] | 0.97 | 1.01 | 1.00 | 1.02 | 1.10 | 0.98 | 0.96 | 1.04 | – | – | – | – | – | – | – | – |
| O=C(CCc1ccc2n1[B-](F)(F)[N+]1=C(c3ccc[nH]3)C=CC1=C2)NCc1ccc(C(=O)NCCOCCOCCNCC(O)COc2cccc3ccccc23)cc1 (stereo not drawn) [Propranolol-3-NB590] | – | – | – | – | – | – | – | – | 0.99 | 1.03 | 1.04 | 0.98 | 0.97 | 1.03 | 1.01 | 1.01 |
| O=C(CCc1ccc2n1[B-](F)(F)[N+]1=C(c3ccc[nH]3)C=CC1=C2)NCCOCCOCCNC(=O)OCCOCCN1CCN(C2=Nc3ccccc3Sc3ccccc32)CC1 [Quetiapine-a-2-NB590] | 1.06 | 0.89 | 1.10 | 1.03 | 1.04 | 0.99 | 0.82 | 0.97 | – | – | – | – | – | – | – | – |
| Cc1nc2n(c(=O)c1CCN1CCC(c3noc4cc(F)ccc34)CC1)CCCC2OC(=O)NCCOCCOCCOCCOCCNC(=O)CCc1ccc2n1[B-](F)(F)[N+]1=C(c3ccc[nH]3)C=CC1=C2 (stereo not drawn) [Risperidone-2-NB590] | 0.94 | 1.08 | 0.97 | 1.04 | 0.97 | 1.02 | 0.97 | 0.98 | – | – | – | – | – | – | – | – |
| CC(C)N(CC[C@H](c1ccccc1)c1cc(CCNC(=O)CCOCCOCCOCCOCCNC(=O)CCc2ccc3n2[B-](F)(F)[N+]2=C(c4ccc[nH]4)C=CC2=C3)ccc1O)C(C)C [Tolterodine-2-NB590] | 1.02 | 1.04 | 0.97 | 0.94 | 1.01 | 0.98 | 0.94 | 1.06 | – | – | – | – | – | – | – | – |
| CC(C)N(CC[C@H](c1ccccc1)c1cc(CCNC(=O)c2ccc(CNC(=O)CCc3ccc4n3[B-](F)(F)[N+]3=C(c5ccc[nH]5)C=CC3=C4)cc2)ccc1O)C(C)C [Tolterodine-BZ-NB590] | 1.01 | 1.04 | 1.02 | 1.05 | 1.11 | 1.00 | 1.01 | 1.02 | – | – | – | – | – | – | – | – |
| CCCn1c(=O)c2[nH]c(-c3ccc(OCC(=O)NCCNC(=O)CCOCCNC(=O)c4ccc(CNC(=O)CCc5ccc6n5[B-](F)(F)[N+]5=C(c7ccc[nH]7)C=CC5=C6)cc4)cc3)nc2n(CCC)c1=O [XAC-3-NB590] | 0.95 | 1.04 | 1.04 | 1.12 | 1.15 | 1.02 | 0.98 | 1.02 | – | – | – | – | – | – | – | – |
